Data from patent US20230331781A1, “PAR4 DERIVED PEPTIDES, ANALOGS AND USES THEREOF” (Yissum Research Development Company of the Hebrew …, priority 2019, published 2023).
Entries after “also recorded” stand apart in the source; their conditions may differ. Numbered stars: 1 amine (or outer) side, 2 acyl side, 3 side chain; on linkers, the order of the positions; unused ones are H or OH. Bridge positions count the residues as written; N and C are the ends. Square brackets hold non-standard residues; d marks the D form. Ends that are not written are not given here. GlyBU(C4) = Gly building unit (N-alpha-functionalized Gly) carrying a C4 alkyl chain (n = m = 4), bridged through a urea group; CO = O=C([*:1])[*:2]

Tests used:
Lovo colon cancer cells = experiment: Matrigel invasion of Lovo colon cancer cells after AYPGKF PAR4 activation; type: cell-based; conditions: PAR4 activated Lovo cells, 50 nM-150 μM, FIGS. 8B and 8C
Experimental: HEK293 cells were transiently transfected with flg-Par4 followed by AYPGKF PAR4 activation in the presence and absence of PAR4c (4-4) within the range of 50 nM-150 μM. IP of cell lysates following different periods of activation was carried out using anti flg abs. Detection of Akt was performed by anti Akt abs. β-actin serves as a control gene for loading. […] Matrigel invasion before and after AYPGKF PAR4 activation and in the presence and absence of PAR4 c(4-4) inhibitor in the activated PAR4 cells. A range between 50 nM-150 μM PAR4 c(4-4) inhibitor was applied. While ample Matrigel invasion is seen following PAR4 activation, this was attenuated in the presence of the inhibitor in all the concentrations used, similar to control prior to PAR4 activation. FIG. 8C—Histograms represent quantification of the cells/HPF invaded the Matrigel layer. Unpaired Student's t test was used. This experiment is a representative of three independent experiments performed in triplicates. FIG. 8D-8K show Wound-scratch migration assay. Lovo cancer cell-line was grown to confluence. Then, an equal wound scratch was introduced to Lovo cell monolayers. […]
When we analyzed the impact of Pc(4-4) on the capability of activated PAR4 in Lovo colon cancer cell line to invade Matrigel, a robust invasion is seen (FIG. 8B), inhibited in the presence of Pc(4-4). […]

PAR4-Akt association = molecular target: T1, PAR4-Akt association (Homo sapiens, UniProt P31749); experiment: PAR4-Akt association, immunoprecipitation in HEK293 cells transfected with flg-Par4 and AYPGKF activated; type: cell-based; conditions: HEK293 cells, 50 nM-150 μM, FIG. 8A
T1 construct: FLAG; expressed in transfected cells
Experimental: Experiments shown in FIG. 3A-3C were carried out in MDA-MB-231 cells. […] Unpaired Student's t test was used. This experiment is a representative of three independent experiments performed in triplicates. […] HEK 293T cells were transfected with wt flg-Par4 followed by AYPGKF activation of PAR4. IP was performed using anti fig abs of cells treated or not with CTP4-A peptide and immunoblotting with anti-Akt abs.
FIG. 4A—PH-Akt module alone binds PAR4-C-tail but not mutant R25C. HEK 293 cells were transiently transfected with flg-Par4 construct and either with GFP-PH-Akt domain alone or GFP-R25C. IP of cell lysates following PAR4 AYPGKF activation was carried out using anti-flg abs. Detection of either Akt-PH domain alone associated with PAR4 was performed with anti-GFP. […] FIG. 4C—The PI3K inhibitor […] inhibits the binding of Akt to PAR4. Treatment of HEK 293 cells with LY294002 for various time points or not, following transient transfection with flg-Par4 and AYPGKF activation was performed. Cell lysates were immunoprecipitated with anti-flg antibodies, and anti-Akt was used to assess the association of Akt with the PAR4 C-tail. […] Amino acid residues of PAR4- and PAR2-PH binding motifs. FIG. 4E—mutations inserted into flg-Par4 generated flg-Par4MutE346A. HEK293 cells were transiently transfected with either wt flg-Par4 or flg-Par4MutE346A. IP of cell lysates following PAR4 activation was carried out using anti-flg abs. Detection of PAR4-Akt association was performed by anti Akt Abs. While association with wt Par4 is seen after 5 and 10 min AYPGKF PAR4 activation, when using flg-Par4 E346A no inhibition is seen and effective association with Akt is seen at 30 min activation. FIG. 4F—utations inserted into flg-Par4 generated flg-Par4Mut F347A and flg-Par4Mut D349A. HEK293 cells were transiently transfected with either wt flg-Par4 or flg-Par4Mut F347A or flg-Par4Mut D349A. IP of cell lysates following PAR4 activation was carried out using anti-f/g abs. Detection of PAR4-Akt association was performed by anti Akt Abs. While association with wt Par4 is seen after 5 min AYPGKF PAR4 activation, no such binding is obtained when using either flg-Par4 F347A or flg-Par4D349A.
HEK293 cells were transiently transfected with flg-Par4 followed by AYPGKF PAR4 activation in the presence and absence of PAR4c (4-4) within the range of 50 nM-150 μM. IP of cell lysates following different periods of activation was carried out using anti flg abs. Detection of Akt was performed by anti Akt abs. β-actin serves as a control gene for loading. […] Matrigel invasion before and after AYPGKF PAR4 activation and in the presence and absence of PAR4 c(4-4) inhibitor in the activated PAR4 cells. […] FIG. 8C—Histograms represent quantification of the cells/HPF invaded the Matrigel layer. […]

T1 sequence (P31749 whole entry): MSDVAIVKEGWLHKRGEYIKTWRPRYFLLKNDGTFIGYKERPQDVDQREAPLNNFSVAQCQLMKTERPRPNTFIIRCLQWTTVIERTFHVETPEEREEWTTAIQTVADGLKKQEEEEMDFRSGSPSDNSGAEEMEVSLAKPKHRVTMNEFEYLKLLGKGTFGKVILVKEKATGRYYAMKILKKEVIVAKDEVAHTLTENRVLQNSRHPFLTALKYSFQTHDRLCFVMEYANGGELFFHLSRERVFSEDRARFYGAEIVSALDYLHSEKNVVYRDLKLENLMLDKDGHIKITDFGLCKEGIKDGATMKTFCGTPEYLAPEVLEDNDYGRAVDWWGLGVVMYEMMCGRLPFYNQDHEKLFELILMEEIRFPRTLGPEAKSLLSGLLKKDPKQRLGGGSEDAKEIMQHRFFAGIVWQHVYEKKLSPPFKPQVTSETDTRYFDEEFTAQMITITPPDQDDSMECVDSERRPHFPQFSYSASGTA

inhibition of Akt/PKB-PAR4 association (IP) (PAR4-Akt association): strong inhibition
inhibition of Akt/PKB-PAR4 association (IP) (PAR4-Akt association; listed as PAR4 c(4-4)): inhibits
Substance: Pc(4-4): backbone cyclic analog of Formula I, m=n=4, ring size 30 atoms (S[GlyBU(C4)]EFRDK[GlyBU(C4)]; bridge 2-8 via CO; not fully specified; printed as SZ1EFRDKX3)
inhibition of Matrigel invasion (Lovo colon cancer cells): inhibited
inhibition of Matrigel invasion (Lovo colon cancer cells; listed as PAR4 c(4-4)): inhibits; also recorded: attenuated
